Calls of active or inactive are those of the source. The rule behind the calls is not given here.
Tests used:
[1] = biological target: T1, Protein deacetylase HDAC6 (Homo sapiens, UniProt Q9UBN7); test: Inhibition of recombinant human HDAC6 (unknown origin)
T1 sequence (Q9UBN7 whole entry): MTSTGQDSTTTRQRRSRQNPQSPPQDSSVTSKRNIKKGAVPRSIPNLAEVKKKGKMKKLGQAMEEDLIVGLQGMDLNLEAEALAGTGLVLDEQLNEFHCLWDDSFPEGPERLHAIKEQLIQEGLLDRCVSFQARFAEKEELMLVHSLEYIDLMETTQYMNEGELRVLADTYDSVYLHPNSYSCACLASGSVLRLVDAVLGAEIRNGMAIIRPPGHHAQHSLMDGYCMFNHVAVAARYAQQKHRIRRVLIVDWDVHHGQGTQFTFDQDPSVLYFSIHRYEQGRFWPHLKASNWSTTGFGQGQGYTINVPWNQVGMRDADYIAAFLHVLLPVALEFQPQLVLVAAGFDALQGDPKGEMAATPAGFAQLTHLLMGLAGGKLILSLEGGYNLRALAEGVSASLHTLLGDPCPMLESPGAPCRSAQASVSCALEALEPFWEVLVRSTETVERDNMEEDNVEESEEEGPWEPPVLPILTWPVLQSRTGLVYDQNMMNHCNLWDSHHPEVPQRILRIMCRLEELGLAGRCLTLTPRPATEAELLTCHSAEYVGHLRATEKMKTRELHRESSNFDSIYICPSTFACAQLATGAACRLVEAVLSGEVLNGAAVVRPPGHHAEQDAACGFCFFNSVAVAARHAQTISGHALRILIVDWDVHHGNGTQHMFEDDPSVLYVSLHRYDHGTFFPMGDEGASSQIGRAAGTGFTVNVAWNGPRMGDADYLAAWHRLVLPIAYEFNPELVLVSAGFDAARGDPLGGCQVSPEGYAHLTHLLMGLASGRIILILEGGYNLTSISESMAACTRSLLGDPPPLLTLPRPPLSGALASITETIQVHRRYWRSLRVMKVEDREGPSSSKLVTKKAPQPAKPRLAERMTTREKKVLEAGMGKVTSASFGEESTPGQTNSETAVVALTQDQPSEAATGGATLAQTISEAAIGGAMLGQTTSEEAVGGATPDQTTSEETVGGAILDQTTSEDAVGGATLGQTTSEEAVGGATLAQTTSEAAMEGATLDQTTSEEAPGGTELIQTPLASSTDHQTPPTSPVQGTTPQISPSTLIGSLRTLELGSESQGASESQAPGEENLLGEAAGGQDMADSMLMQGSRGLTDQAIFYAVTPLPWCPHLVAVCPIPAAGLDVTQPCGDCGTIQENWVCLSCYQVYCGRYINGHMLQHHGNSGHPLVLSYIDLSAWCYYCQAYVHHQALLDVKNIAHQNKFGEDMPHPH

[2] = biological target: T2, Histone deacetylase 8 (Homo sapiens) (UniProt Q9BY41); test: Inhibition of HDAC8 in human Jurkat T cells assessed as upregulation of EOMES expression at 10 uM after 6 to 12 hrs by RT-qPCR analysis; format: cell-based; conditions: time 6-12 hrs
T2 sequence (whole entry): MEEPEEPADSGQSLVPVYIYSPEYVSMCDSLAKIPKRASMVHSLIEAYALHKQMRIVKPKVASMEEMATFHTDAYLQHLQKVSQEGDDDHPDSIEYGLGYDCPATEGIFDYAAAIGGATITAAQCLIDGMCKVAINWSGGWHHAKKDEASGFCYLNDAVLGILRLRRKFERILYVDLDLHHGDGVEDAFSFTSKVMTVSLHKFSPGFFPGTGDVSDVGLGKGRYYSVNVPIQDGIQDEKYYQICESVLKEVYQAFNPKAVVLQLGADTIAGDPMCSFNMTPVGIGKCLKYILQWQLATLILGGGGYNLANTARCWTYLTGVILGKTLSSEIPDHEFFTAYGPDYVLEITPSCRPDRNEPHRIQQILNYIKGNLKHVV

[3] = biological target: T2, Histone deacetylase 8 (Homo sapiens); test: Inhibition of HDAC8 in human Jurkat T cells assessed as upregulation of KLRG expression at 10 uM after 6 to 12 hrs by RT-qPCR analysis; format: cell-based; conditions: time 6-12 hrs
[4] = biological target: T2, Histone deacetylase 8 (Homo sapiens); test: Inhibition of HDAC8 in human Jurkat T cells assessed as upregulation of IL-7R expression after 6 hrs by RT-qPCR analysis; format: cell-based; conditions: dose 0.1-10 µM, DDE = dose-dependent effect
[5] = biological target: T2, Histone deacetylase 8 (Homo sapiens); test: Inhibition of HDAC8 in human Jurkat T cells assessed as upregulation of PRDM1 expression after 6 hrs by RT-qPCR analysis; format: cell-based; conditions: dose 0.1-10 µM, DDE = dose-dependent effect
Mus musculus = test: Immuno-modulatory activity in C57BL/6 mouse assessed as increase in proportion of CD3+ cells in spleen at 10 mg/kg, ip administered 5 days per week for 2 weeks by flow cytometry analysis; format: functional, organism-based
[6] = Toxicity in C57BL/6 mouse assessed as change in intestine weight at 5 to 10 mg/kg, ip administered 5 days per week for 2 weeks by H and E staining based assay; format: organism-based; conditions: in vivo, 336 h, dose 5-10 mg/kg
[7] = Toxicity in C57BL/6 mouse assessed as change in spleen weight at 5 to 10 mg/kg, ip administered 5 days per week for 2 weeks by H and E staining based assay; format: organism-based; conditions: in vivo, 336 h, dose 5-10 mg/kg

IC50 [1]: > 20 µM
inhibition [2]: Active
inhibition [3]: Active
inhibition [4]: Dde
inhibition [5]: Dde
SMILES: CCCCCCNNC(=O)c1ccc(-c2ccc(CNC(C)=O)cc2)cc1
Activity (Mus musculus): Active
Activity [6]: Non-Toxic
Activity [7]: Non-Toxic

Reference: ChEMBL document CHEMBL5150060 (J Med Chem, 2022)
